The values that follow come from patent US9925204B2, “Anti-inflammatory compounds in combination with hydrogen for the treatment of inflammation” (priority 2012, dated 2018).

Where two headings read alike, the source gives them in different places.

The test system of series [1] is tonic extensor seizures in mice. The following applies: cited from earlier work; for Effect # Protected/# Tested / Ataxia # Ataxia/# Tested: mice, intravenous, 120 min after dose; for Effect # Protected/# Tested: electroshock.
For series [2], the system named is mouse foot pad inflammation induced by Freund's complete adjuvant (FCA). As to the kind of experiment: Freund's complete adjuvant induced foot pad inflammation in mice (Example 1). Format: in vivo. How it is done:
Mice were placed in the following administration groups, and administration occurred daily:
1) Control (no treatment) (n=4)
2) Placebo (PBS, i.p.) inoculation—(i.e. CFA only) (n=4)
3) H2 enriched PBS inoculation (i.e. CFA+H2) (n=4)
4) Lactulose inoculation at 0.5 mL/mouse (i.e. CFA+Lact) (n=4)
5) LYRICA® (i.e. CFA+Lyr) (n=5)
6) LYRICA®+H2 enriched PBS (i.e. CFA+Lyr+H2) (n=5)
7) LYRICA®+Lactulose in PBS (i.e. CFA+Lact+H2) (n=4)
CFA was injected into the mice in groups 2 through 7 above. Inflammation was induced in the mice by injection of Freund's complete adjuvant (FCA), 25 μL/foot, on day 0 as shown in FIG. 1A. […] These measurements included thickness of foot pad (level of inflammation), amount of H2 in abdominal cavity, amount of nerve growth factor (NGF) (pain marker) in foot pad, amount of Substance P (pain marker) in foot pad, and amount of IL-1β in foot pad (level of inflammation).

A short description of series [3]: H2 concentration in ascites fluid after ingestion (Example 2). Type of series: in vivo, mouse. The following applies: for H2 concentration in ascites fluid after ingestion of sugar solution: mouse abdominal cavity, ranking among sugars tested. As to the method: Lactose, glucose, galactose, fructose, mannitol, inulin, Splenda® (McNeil Nutritionals (sucralose)), Equal® (Merisant (aspartame, dextrose, and maltodextrin)), and lactulose were tested along with a control.
After 30 minutes, H2-enriched water provided approximately 40 μM H2 concentration but dropped off to approximately 15 μM after 4 hours. At 4 hours, lactulose provided over 20 μM H2 concentration.

The subject of series [4] is Freund's complete adjuvant-induced hind paw inflammation in mice. As to the kind of experiment: Freund's complete adjuvant-induced hind paw inflammation in mice (Example 4). Type of series: in vivo, mice (BALB/c). To be noted: day 7, versus mice without lactulose. As to the method: The following experiment was performed to test the effects of Lactulose combined with Celecoxib or Ibuprofen on Freund's complete adjuvant-induced hind paw inflammation in mice, with the results shown in FIGS. 12-15.
For induction of hindpaw inflammation, mice (BALB/c; 8 w old male n=6/group) received i.pl. injection of 25 μl of complete Freund's adjuvant (CFA, diluted 1:1 with PBS, 2 mg/ml; Mycobacterium tuberculosis; Difco Laboratories, Detroit, Mich.). Lactulose (10% water) or control water alone was administered once in a day for 7 days (500 μl/day) by oral gavage using a 20-G bulb-tipped gastric gavage needle (P.O.). Celecoxib (Toronto Research Chemicals) and Ibuprofen (Enzo Life Sciences) dissolved in PBS was applied to mice once a day via intra-peritoneal (i.p.) injection (10 mg/kg/day, respectively) for 7 days. The thickness of the foot pad was measured using a digital microcaliper as mice were sacrificed on 7 day. Surgically removed hind paw tissue was homogenized in EIA-Buffer (Cayman) and subjected to mouse NGF ELISA (Millipore), PGE2 EIA (Cayman), or TNF-α ELISA (R&D systems).

The subject of series [5] is GAD. The following applies: cited from earlier work.
The test system of series [6] is mouse macrophage cell line (RAW264.7). As to the kind of experiment: TNF-α production from LPS-stimulated mouse macrophages (Example 3). Format: cell-based. The following applies: LPS-stimulated RAW264.7, 24 hours, ELISA; drug 10-1000 nM, with or without H2. As to the method: The following is an in vitro experiment to test the effects of hydrogen on the Celecoxib- or Ibuprofen-mediated anti-inflammatory activities, and the results are shown in FIGS. 10 and 11.
The mouse macrophage cell line (RAW264.7) was seeded at a density of 1.0×10^5 cells/well in 96-well culture plates in Minimum Essential Medium Alpha ( ? -MEM, Sigma) supplemented with penicillin G solution (100 U/ml, GIBCO; Invitrogen, Buffalo, N.Y.), streptomycin ([…], GIBCO; Invitrogen), and gentamicin (50 ? g/ml, GIBCO; Invitrogen) containing 10% FBS in the presence or absence of H2 (300 nM/ml) for 30 min. Then the cells were exposed to LPS (0.1 mg/ml, Invivogen, San Diego, Calif.), with or without a variety of concentrations of Celecoxib or Ibuprofen (10-1000 nM). After culture of the RAW264.7 cells for 24 hours in a CO2 incubator (37° C.), the culture supernatant was harvested and subjected to TNF-α ELISA (R&D Systems).
(In general: ELISA stands for enzyme-linked immunosorbent assay.)

In the case of `CC(C)CC(CN)CC(=O)O` (stereo not drawn) [i-C4H9, 4-amino-3-(2-methylpropyl)butanoic acid], the “Effect # Protected/# Tested” value in series [1] (0.3 mg/kg) is 1/10; in series [1] (0.8 mg/kg) it was 3/10; in series [1] (2.0 mg/kg), 5/10; in series [1] (5.5 mg/kg), 7/10.

`OC[C@H]1O[C@@H](O[C@@H]2[C@@H](CO)OC(O)(CO)[C@H]2O)[C@H](O)[C@@H](O)[C@H]1O` (mixture of isomers) [Lactulose, lactulose]: in series [2] (day 8, CFA-injected mice), the “H2 concentration in the abdomen” value is on record as “highest”. The “H2 concentration in ascites fluid” value in series [3] (after 4 hours) was “over 20 μM”. The “H2 concentration in ascites fluid after ingestion of sugar solution” value in series [3] was “highest concentration of H2 in ascites fluid”. The foot pad swelling entry in series [4] (lactulose 10% P.O. 500 μl/day, drug 10 mg/kg/day i.p.) is recorded as “reduced”. For the same compound, in series [4], the “NGF in inflamed foot pads” value is “reduced”, the “amount of PGE2 in inflamed foot pads” value is listed as “reduced” and the “amount of TNF-α in inflamed foot pads” value was “greatly reduced”.

For the compound `CC(C)(CN)CC(=O)O` [(CH3)2], the “Effect # Protected/# Tested” value in series [1] (30 mg/kg) and in series [1] (100 mg/kg) was 4/5 in each case. The “Ataxia # Ataxia/# Tested” value in series [1] (30 mg/kg) and in series [1] (100 mg/kg) was 0/5 throughout.

Consider `CC(N)CCC(=O)O` (racemic) [H(R,S)], for which the “Activation of GAD by GABA analogs expressed in %” value is 104% in series [5] (0.25 mM), 111% in series [5] (1.0 mM) and 140% in series [5] (2.5 mM).

As to `CC(C)(C)C(CN)CC(=O)O` (stereo not drawn) [t-C4H9], the “Effect # Protected/# Tested” value in series [1] (10 mg/kg) is 2/10; in series [1] (30 mg/kg), 2/10; in series [1] (100 mg/kg), 5/10. For the same compound, the “Ataxia # Ataxia/# Tested” value in series [1] (10 mg/kg), in series [1] (30 mg/kg) and in series [1] (100 mg/kg) was 0/10 each time.

For `NCC1(CC(=O)O)CCCCC1` [GABAPENTIN, gabapentin], the “Activation of GAD by GABA analogs expressed in %” value in series [5] (0.25 mM) was 105%; in series [5] (1.0 mM), 145%; in series [5] (2.5 mM), 178%.

In the case of `CC(CN)CC(=O)O` (racemic) [(R,S)—CH3], the entries for the “Effect # Protected/# Tested” value in series [1] (10 mg/kg), in series [1] (30 mg/kg) and in series [1] (100 mg/kg) were 0/5, 4/5 and 3/5, respectively. The “Ataxia # Ataxia/# Tested” value in series [1] (10 mg/kg), in series [1] (30 mg/kg) and in series [1] (100 mg/kg) was 0/5 each time.

Regarding `CCCC(CCC)C(=O)[O-].[Na+]` [Sodium Valproate], the “Activation of GAD by GABA analogs expressed in %” value is reported as 105% in series [5] (0.05 mM); 115% in series [5] (0.1 mM); 119% in series [5] (0.25 mM); 124% in series [5] (0.5 mM); 138% in series [5] (1.0 mM); 207% in series [5] (2.5 mM). In addition, the “Activation of GAD by glutamate analogs expressed in %” value in series [5] (0.25 mM) is recorded as 119%; in series [5] (1.0 mM), 138%; in series [5] (2.5 mM) it was 207%.

For inulin, the “H2 concentration in ascites fluid after ingestion of sugar solution” value in series [3] is listed as “next highest concentration”.

On to `CCC(C)C(CN)CC(=O)O` (stereo not drawn) [s-C4H9], for which the “Effect # Protected/# Tested” value in series [1] (3 mg/kg) is given as 2/10; in series [1] (10 mg/kg), 3/10; in series [1] (30 mg/kg), 2/10. Further, the “Ataxia # Ataxia/# Tested” value in series [1] (3 mg/kg), in series [1] (10 mg/kg) and in series [1] (30 mg/kg) was 0/10 each time.

As for `C[C@@H](N)CCC(=O)O` [H(R)], the “Activation of GAD by GABA analogs expressed in %” value in series [5] (0.25 mM) was 108%; in series [5] (1.0 mM) it was 125%; in series [5] (2.5 mM) it was 173%.

As to `CC(C)CC(CN)CC(=O)O` (racemic) [(R,S)—i-C4H9, H, 4-amino-3-(2-methylpropyl)butanoic acid], the “activating GAD in vitro” value in series [5] (compared with the other analogs tested) is “least effective one of the analogs tested”. Besides, the “potency when tested in vivo” value in series [1] (compared with the other analogs) was “more potent than the other analogs”.

In the case of `CC(C)(C)CC(CN)CC(=O)O` (stereo not drawn) [neo-C5H11], the figures for the “Effect # Protected/# Tested” value in series [1] (10 mg/kg), in series [1] (30 mg/kg) and in series [1] (100 mg/kg) were 2/10, 4/10 and 4/10, respectively. Also, the “Ataxia # Ataxia/# Tested” value in series [1] (10 mg/kg), in series [1] (30 mg/kg) and in series [1] (100 mg/kg) was 0/10 each time.

As for `CC(C)Cc1ccc(C(C)C(=O)O)cc1` (racemic) [ibuprofen, (RS)-2-(4-(2-methylpropyl)phenyl)propanoic acid], the TNF-α production result in series [6] was “TNF-α suppression”.

Turning to `C[C@H](N)CCC(=O)O` [H(S)], the “Activation of GAD by GABA analogs expressed in %” value in series [5] (0.25 mM), in series [5] (1.0 mM) and in series [5] (2.5 mM) was 100% throughout.

As to `CC(C)C[C@H](CN)CC(=O)O` [LYRICA®, (S)-(+)-4-amino-3-(2-methylpropyl)butanoic acid], in series [2] (CFA-injected mice), the “IL-1β in tissue (level of inflammation)” value is given as “slightly reduced levels of inflammation compared to placebo group 2” and the “Substance P (pain marker) in tissue” value is “reduction in the marker compared to the placebo group 2”.
